In patent US20090117177A1, “Echogenic microbubbles and microemulsions for ultrasound-enhanced nanoparticle-mediated delivery of agents” (priority 2005, published 2009):
Converted amounts (≈) assume the structure as drawn.

Tests used:
[1] = system: HCT116 colon cancer tumors; experiment: HCT116 tumor growth rates; type: in vivo, male nu/nu mice; conditions: intravenous injection, DOX 3 mg/kg
Description: Tumors: HCT116 colon cancer tumors were inoculated subcutaneously to the right flanks of male nu/nu mice. (See, FIGS. 24 and 25). In contrast to A2780 tumors, this tumor is characterized as being poorly vascularized (See, FIG. 24).
(§1) DOX-loaded micelles were injected either intravenously (i.v.) or intratumorally (i.t.) at a DOX dosage of 3 mg/kg (growth rate studies) or 6 mg/kg (biodistribution studies).
Tumor growth rates: Animals were randomly assigned to experimental and control groups, comprising five animals each. Intravenous treatment was initiated when tumor volume reached 50-100 mm^3. Intratumoral treatment was initiated when tumor volume reached 150-300 mm^3. A total of four injections were delivered twice a week for two weeks. For intratumoral injections, four injections of 25 μl drug solution each were made into four sites of a tumor.

[2] = system: HCT116 colon cancer tumors; experiment: HCT116 biodistribution, DOX uptake by cells of organs by flow cytometry; type: in vivo, male nu/nu mice
Description: as §1
Biodistribution studies: DOX uptake by the cells of various organs was measured by flow cytometry. Mice were intratumorally injected with either free (i.e., PBS-dissolved) DOX or micelle-encapsulated DOX. Ten hours after injection of the composition, mice were sacrificed and tumors and various organs were excised and digested in trypsin.

colon cancer HCT116 = experiment: Sensitivity of HCT116 to DOX; type: cell-based, human
[3] = ten hours after intratumoral injection

DOX internalization by tumor cells ([2]; ten hours after i.v. injection): did not deliver drug to tumor cells
DOX in spleen cells [2, 3]: slightly higher
DOX uptake by heart cells [2, 3]: significant uptake
IC50 (colon cancer HCT116): 1.5 µg/mL (≈ 2.76 µM)
Compound: COc1cccc2c1C(=O)c1c(O)c3c(c(O)c1C2=O)C[C@@](O)(C(=O)CO)C[C@@H]3O[C@H]1C[C@H](N)[C@H](O)[C@H](C)O1 [DOX, doxorubicin]
tumor response [1]: high resistance to chemotherapy
